In assay [1] the test system is HIV envelope gp120/41-induced syncytia formation in CD4+T cell lines (HIVenv 2-8 co-culture). Nature of the assay: Inhibition of HIVenv 2-8-induced syncytia formation / cell death (HIV-1 co-culture assay). The format is cell-based. The note with it: for Estimated IC50 (Syncitia Quantification), inhibition of HIV-induced cytopathicity: Table 1. As to the method:
Sourcing of Ah Receptor Ligands: The Ah receptor ligands 2,3,7,8-Tetrachlorodibenzo-p-dioxin, 3,3',4,4',5-Pentachlorobiphenyl, 3,3',4,'4-Tetrachlorobiphenyl, and 2-Monochlorodibenzo-p-dioxin compounds were purchased from Accustandard (Cambridge, Mass.). α-naphthoflavone was purchased from Sigma (St. Louis, Mo.). Stock solutions of each compound were prepared by dissolution in DMSO at a 1000X concentration, i.e. the highest concentration tested was diluted by 1000-fold.
Bioassay Procedure: The cell lines utilized in the assay protocol include the following: HIVenv 2-2 (non-cytopathic), HIVenv 2-8 (cytopathic), Jurkat CD4+T cell line (clone E6-1), and SupT1. Cell lines were cultured in RPMI medium (Gibco, Grand Island, N.Y.) supplemented with L-glutamine (Sigma, St. Louis, Mo.) and 10% FBS-HI (Intergen). The Jurkat CD4+T cell line was obtained from American Type Culture Collection (Bethesda, Md.). All other cell lines were obtained from the National Institutes of Health. The HIVenv 2-2 or HIVenv 2-8 cells were plated with both CD4+T cell lines (1×10^3 cells per cell line in 16 μL of media.) in a 96-well tissue culture plate containing 50 μL of media with compound to be tested yielding a final volume of approximately 100 μL. The plates were then gently shaken to ensure adequate mixing of the assay components. Cells were then co-cultured at 5% CO2, 37C., and 95% humidity for 24 to 48 hours. The time points were chosen for the convenience, cytopathic changes become evident in the cell cultures used within a 2 to 4 hour period, becoming more and more prominent with time.
Data Reduction for this ELISA: HIVenv 2-2 co-culture ELISA values are used as the background for HIVenv 2-8 co-culture values. Dose responses are then plotted with dose along the x-axis and the background corrected optical density values on the y-axis.
Positive and Negative Controls: The use of the HIVenv 2-2 cell line serves as a negative control for induction of cytopathicity.
Interpretation of the Test: A positive response was defined as a dose-related decrease in syncytia formation in excess of 50% compared to HIVenv 2-8 co-cultures alone. Calculation of median effective doses was estimated by visual observation and by quantification of syncitia in 10X power microscope fields.
The Materials and Methods used in the testing of the various dibenzofuran compounds were the same as those used in Example 1 above. This includes the use of the same controls, cell lines, and assay procedures.
Interpretation of the Test: A positive response was defined as a dose-related decrease in syncytia formation in excess of 50% compared to HIVenv 2-8 co-cultures alone. Calculation of median effective doses was estimated by visual observation and by quantification of syncitia in 10X power microscope fields. Another procedure which provides data similar to the Bioassay procedure just described allows for quantification of changes in the co-culture cells through an ELISA method, not as reliant on visual observation. […]

For assay [2], the target named is T1, Ah receptor (Cavia porcellus, UniProt Q6J287).
T1 sequence (Q6J287 1-846): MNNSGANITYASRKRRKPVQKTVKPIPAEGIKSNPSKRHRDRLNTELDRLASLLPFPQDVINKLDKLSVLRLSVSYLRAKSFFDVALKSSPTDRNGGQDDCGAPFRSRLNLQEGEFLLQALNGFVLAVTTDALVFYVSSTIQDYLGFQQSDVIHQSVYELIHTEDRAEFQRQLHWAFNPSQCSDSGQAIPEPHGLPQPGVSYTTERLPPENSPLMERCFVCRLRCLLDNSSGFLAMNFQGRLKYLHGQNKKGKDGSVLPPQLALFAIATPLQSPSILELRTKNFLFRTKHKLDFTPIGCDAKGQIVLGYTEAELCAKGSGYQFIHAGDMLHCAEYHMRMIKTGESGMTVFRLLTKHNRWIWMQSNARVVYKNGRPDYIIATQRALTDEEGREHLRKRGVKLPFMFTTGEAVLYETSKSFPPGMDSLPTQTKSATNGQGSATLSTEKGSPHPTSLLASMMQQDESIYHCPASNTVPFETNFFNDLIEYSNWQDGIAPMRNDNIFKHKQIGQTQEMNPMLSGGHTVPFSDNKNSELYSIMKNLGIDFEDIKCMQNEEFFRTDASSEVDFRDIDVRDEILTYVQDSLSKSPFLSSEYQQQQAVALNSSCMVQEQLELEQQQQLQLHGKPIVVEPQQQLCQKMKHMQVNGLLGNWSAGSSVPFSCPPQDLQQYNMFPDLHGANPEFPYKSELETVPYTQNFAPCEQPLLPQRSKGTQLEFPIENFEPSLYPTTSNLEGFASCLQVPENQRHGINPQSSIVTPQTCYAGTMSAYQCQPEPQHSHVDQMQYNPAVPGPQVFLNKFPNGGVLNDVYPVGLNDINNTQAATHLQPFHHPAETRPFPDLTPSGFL
Briefly: Ah receptor transformation, agonist test (Ah-immunoassay, absence of TCDD). The class given is biochemical, Guinea pig. The note with it: absence of TCDD. The protocol:
Cytosol was prepared as described above.
Diluent for TCDD dose response, diluent for extracts (detection of agonists), and negative control: The cytosol is treated with 1 μL DMSO per 1 mL cytosol (-).
1 nM TCDD treated, positive control. […] DMSO diluent for detection of agonists: the cytosol is treated with μL DMSO per 1 mL cytosol. (1 nm final concentration of TCDD).

Assay [3] has as its system HIV; viruses; tumors; liver. The note with it: cited from earlier work.
Assay [4] addresses T1, Ah receptor. Briefly: Inhibition of Ah receptor transformation, antagonist test (Ah-immunoassay, 0.5 nM TCDD). The settings on record: for Test as antagonist, Milli O.D at 405: 0.5 nM TCDD; for binding or interaction with the Ah receptor (words): with and without 0.5 nM TCDD.
Method: Cytosol was prepared as described in methods and treated with TCDD, DMSO or TCM extract to make 1) 0.5 nM TCDD, 2) 0.1% DMSO, or 3) 500 μg/mL TCM extract, respectively. The treated cytosol was serially diluted in a neutravidin-coated ELISA plate (Pierce, Rockford, Ill.). […] To treat for Ah receptor agonist activity, extracts were diluted in 0.5 nM TCDD treated cytosol to 250, 125, and 62.5 μg/mL of TCM extracts.
Ten mL aliquots of cytosol were thawed and pooled, generally 20 mL per ELISA plate. For each 20 mL of cytosol, 10 μL of thawed DRE stock and 1 mL HEDG in 4M NaCl were added.
0.5 nM TCDD Diluent for extracts (detection of antagonists): The cytosol is treated with 1 μl of 1 μM TCDD per 2 mL cytosol (0.5 nm).
500 μg/mL extracts (detection of antagonists): 1 μL of test extract (500 mg/mL in DMSO) in 1 mL 0.5 nM TCDD-treated cytosol (500 μg/mL final concentration of extract in cytosol).
Serial dilution's of the extracts and/or TCDD treated cytosol into DMSO-treated cytosol are done as required by the experiment and are described in the examples.
The ELISA plate containing the treated cytosol is incubated with gentle rocking for 2 hours at 30° C. to allow the transformation of Ah receptor, binding of Ah receptor with ARNT, and binding of the Ah receptor/ARNT complex to the biotinylated DRE, and binding of the biotinylated DRE to the neutravidin bound to the ELISA plate.
After 2 hours the plate is washed 3 times with 400 μL TBS plus 0.02% Tween 20 per well per wash and 200 μL of the working dilution of anti-ARNT added to all wells. The plate is again incubated with gentle rocking at 30° C. for 1 hour. After 1 hour the plate is washed as before and a working dilution (1:4000) of anti-rabbit/alkaline phosphatase conjugate is added to all wells. The plate is incubated for a further 1 hour at 30° C. with gentle rocking and then washed as before. PNPP stock is added to each well (200 μL) and the plate is incubated for 1 hour at 30° C., at which time it is read at 405 nm in an ELISA plate reader and the milli O.D.'s of the wells are recorded.
TCM extracts were tested for their ability to inhibit the transformation of the Ah receptor.

The values below come from patent US5833994A, “Use of the AH receptor and AH receptor ligands to treat or prevent cytopathicity of viral infection” (Paracelsian, Inc., priority 1997, dated 1998).

“Also recorded” adds a separate entry of the source. Where two headings read alike, the source gives them in different places.

Take `Clc1cc2c(cc1Cl)Oc1c(Cl)c(Cl)c(Cl)c(Cl)c1O2` [1,2,3,4,7,8-HCDD]: the “Estimated IC50 (Syncitia Quantification), inhibition of HIV-induced cytopathicity” value in assay [1] is on record as “No Inhibition Observed”.

`Cc1cc(Cl)cc2c1oc1cc(Cl)cc(Br)c12` [1-bromo,6-methyl,3,8-dichlorodibenzofuran]: in assay [1], the “inhibition of syncytia formation / cytopathicity” value was “most effective compound and strongest Ah receptor antagonist”; the “Estimated IC50 (Syncitia Quantification), inhibition of HIV-induced cytopathicity” value is 0.1 µM.

Regarding `Clc1cc2oc3cc(Cl)c(Cl)cc3c2cc1Cl` [2,3,7,8-TCDF], in assay [1], the “Estimated IC50 (Syncitia Quantification), inhibition of HIV-induced cytopathicity” value was 0.08 µM.

As for `Clc1ccc(-c2cc(Cl)c(Cl)c(Cl)c2)cc1Cl` [3,3',4,4',5-PCB, 3,3',4,4',5-pentachlorobiphenyl], in assay [1], the “inhibition of syncytia formation / cytopathicity” value is on record as “correspondingly weaker activity” and the “Estimated IC50 (Syncitia Quantification), inhibition of HIV-induced cytopathicity” value is 0.1 µM.

For the compound `Clc1ccc(-c2ccc(Cl)c(Cl)c2)cc1Cl` [3,3',4,4'-TCB, 3,3',4,4'-tetrachlorobiphenyl], in assay [1], the “inhibition of syncytia formation / cytopathicity” value is on record as “correspondingly weaker activity” and the “Estimated IC50 (Syncitia Quantification), inhibition of HIV-induced cytopathicity” value was 0.035 µM.

For `CCCCc1cc(Cl)cc2c1oc1cc(Cl)cc(Cl)c12` [6-butyl,1,3,8-trichlorodibenzofuran], the “Estimated IC50 (Syncitia Quantification), inhibition of HIV-induced cytopathicity” value in assay [1] was 1.5 µM.

Take `Clc1cc(Cl)c2c(c1)oc1c(C3CCCCC3)cc(Cl)cc12` [6-cyclohexyl,1,3,8-trichlorodibenzofuran]: the “Estimated IC50 (Syncitia Quantification), inhibition of HIV-induced cytopathicity” value in assay [1] is 0.5 µM.

For the compound `CCc1cc(Cl)cc2c1oc1cc(Cl)cc(Cl)c12` [6-ethyl,1,3,8-trichlorodibenzofuran], the “Estimated IC50 (Syncitia Quantification), inhibition of HIV-induced cytopathicity” value in assay [1] is 1 µM.

For `CC(C)c1cc(Cl)cc2c1oc1cc(Cl)cc(Cl)c12` [6-isopropyl,1,3,8-trichlorodibenzofuran], in assay [1], the “inhibition of syncytia formation / cytopathicity” value was “slightly less antagonistic activity” and the “Estimated IC50 (Syncitia Quantification), inhibition of HIV-induced cytopathicity” value was 0.1 µM.

As to `Cc1cc(Cl)cc2c1oc1cc(Cl)cc(Cl)c12` [6-methyl,1,3,8-trichlorodibenzofuran], the “Estimated IC50 (Syncitia Quantification), inhibition of HIV-induced cytopathicity” value in assay [1] was 0.2 µM.

Consider `O=[N+]([O-])c1cc(Cl)cc2c1oc1cc(Cl)cc(Cl)c12` [6-nitro 1,3,8-trichlorodibenzofuran], for which, in assay [1], the “inhibition of syncytia formation / cytopathicity” value is “slightly less antagonistic activity” and the “Estimated IC50 (Syncitia Quantification), inhibition of HIV-induced cytopathicity” value is 0.5 µM.

In the case of `CCCc1cc(Cl)cc2c1oc1cc(Cl)cc(Cl)c12` [6-propyl,1,3,8-trichlorodibenzofuran], in assay [1], the “Estimated IC50 (Syncitia Quantification), inhibition of HIV-induced cytopathicity” value was 0.5 µM.

Regarding `CC(C)(C)c1cc(Cl)cc2c1oc1cc(Cl)cc(Cl)c12` [6-t-butyl,1,3,8-trichlorodibenzofuran], the “Estimated IC50 (Syncitia Quantification), inhibition of HIV-induced cytopathicity” value in assay [1] is 1.5 µM.

Turning to `C=C1CC[C@@H]2[C@](C)(CO)[C@H](O)CC[C@@]2(C)[C@@H]1C/C=C1/C(=O)OC[C@H]1O` [Andrographolide, andrographolide], the “Test as agonist, Milli O.D at 405” value on Ah receptor [2] (Table 11, 0.313 μg/mL) worked out at 49.5 Milli O.D; at Ah receptor [2] (Table 11, 0.625 μg/mL) it was 43 Milli O.D; on Ah receptor [2] (Table 11, 1.25 μg/mL) it was 59.5 Milli O.D; on Ah receptor [2] (Table 11, 2.5 μg/mL), 54.5 Milli O.D; at Ah receptor [2] (Table 11, 5 μg/mL), 55 Milli O.D; on Ah receptor [2] (Table 11, 10 μg/mL), 47 Milli O.D. Besides, the “pharmacological activity (words)” value in assay [3] was “anti-tumor activity”; in assay [3] (listed as andrographolide), “anti-HIV effects; also recorded: anti-viral, anti-neoplastic and hepatoprotective properties”. Further, the “Test as antagonist, Milli O.D at 405” value on Ah receptor [4] (Table 11, 0.313 μg/mL) was determined as 1457 Milli O.D; on Ah receptor [4] (Table 11, 0.625 μg/mL), 1402 Milli O.D; at Ah receptor [4] (Table 11, 1.25 μg/mL), 1437 Milli O.D; at Ah receptor [4] (Table 11, 2.5 μg/mL) it was 1416 Milli O.D; on Ah receptor [4] (Table 11, 5 μg/mL) it was 1421 Milli O.D; on Ah receptor [4] (Table 11, 10 μg/mL), 1164 Milli O.D. The “binding or interaction with the Ah receptor (words)” value was “does not interact or inhibit the Ah receptor” on Ah receptor [4] and “does not bind the Ah receptor; also recorded: non-Ah receptor binding” on Ah receptor [4] (listed as andrographolide).

Consider `Clc1ccc2c(c1)Oc1ccccc1O2` [Extract 2-MCDD, 2-Monochlorodibenzo-p-dioxin], for which, in assay [1], the “inhibition of syncytia formation / cytopathicity” value was “incapable of blocking the cytopathic effect” and the “Estimated IC50 (Syncitia Quantification), inhibition of HIV-induced cytopathicity” value is reported as “No Inhibition Observed”.

For the compound `CC1(C)CC[C@]2(C(=O)O)CC[C@]3(C)C(=CC[C@@H]4[C@@]5(C)CC[C@H](O)C(C)(C)[C@@H]5CC[C@]43C)[C@@H]2C1` [Oleanolic Acid], the “Test as agonist, Milli O.D at 405” value at Ah receptor [2] (Table 11, 0.313 μg/mL) is 48 Milli O.D; on Ah receptor [2] (Table 11, 0.625 μg/mL), 19.5 Milli O.D; at Ah receptor [2] (Table 11, 1.25 μg/mL) it was 49 Milli O.D; on Ah receptor [2] (Table 11, 2.5 μg/mL) it was 49.5 Milli O.D; at Ah receptor [2] (Table 11, 5 μg/mL), 49.5 Milli O.D; at Ah receptor [2] (Table 11, 10 μg/mL), 50 Milli O.D. Besides, the “Test as antagonist, Milli O.D at 405” value on Ah receptor [4] (Table 11, 0.313 μg/mL) stood at 1493 Milli O.D; at Ah receptor [4] (Table 11, 0.625 μg/mL) it was 1444 Milli O.D; on Ah receptor [4] (Table 11, 1.25 μg/mL), 1438 Milli O.D; on Ah receptor [4] (Table 11, 2.5 μg/mL) it was 1462 Milli O.D; on Ah receptor [4] (Table 11, 5 μg/mL), 1423 Milli O.D; at Ah receptor [4] (Table 11, 10 μg/mL) it was 1143 Milli O.D. Also, the “binding or interaction with the Ah receptor (words)” value on Ah receptor [4] was “non-Ah receptor binding”.
